Data as given in patent US8883827B2, “Azole derivatives as WTN pathway inhibitors” (Oslo University Hospital HF, priority 2009, dated 2014).
pIC50: −log10 of the molar value.

Tests used:
canonical Wnt signaling = experiment: ST-Luc (SuperTOPFlash) Luciferase assay in HEK293 cells, 30% Wnt3a-CM; type: cell-based; conditions: Homo sapiens, 24 h
Procedure, shortened: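 HEK293 cells were transiently co-transfected with SuperTOPFlash firefly luciferase and pRL-TK Renilla reporters, then treated 24 h with 10 μM compound in 30% Wnt3a-conditioned medium. Dual luciferase activity was read, and percent activity was expressed relative to DMSO control.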

CK2(h) = biological target: T1, CK2(h) (Homo sapiens, UniProt P68400); experiment: Kinase screen; type: biochemical; conditions: 0.1% DMSO control = 100%
T1 construct: purchased Millipore (KinaseProfiler service)
T1 sequence (P68400 whole entry): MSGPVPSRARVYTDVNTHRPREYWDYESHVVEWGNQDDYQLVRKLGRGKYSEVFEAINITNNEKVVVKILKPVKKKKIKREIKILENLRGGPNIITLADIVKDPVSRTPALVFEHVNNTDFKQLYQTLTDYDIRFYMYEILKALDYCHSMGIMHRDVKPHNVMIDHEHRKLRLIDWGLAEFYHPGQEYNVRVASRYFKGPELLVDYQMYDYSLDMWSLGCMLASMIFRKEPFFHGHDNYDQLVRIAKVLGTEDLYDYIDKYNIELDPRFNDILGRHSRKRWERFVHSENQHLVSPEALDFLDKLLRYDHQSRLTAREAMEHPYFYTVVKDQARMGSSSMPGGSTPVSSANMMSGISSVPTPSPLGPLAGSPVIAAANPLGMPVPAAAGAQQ
T1 sequence (P67870 whole entry partner): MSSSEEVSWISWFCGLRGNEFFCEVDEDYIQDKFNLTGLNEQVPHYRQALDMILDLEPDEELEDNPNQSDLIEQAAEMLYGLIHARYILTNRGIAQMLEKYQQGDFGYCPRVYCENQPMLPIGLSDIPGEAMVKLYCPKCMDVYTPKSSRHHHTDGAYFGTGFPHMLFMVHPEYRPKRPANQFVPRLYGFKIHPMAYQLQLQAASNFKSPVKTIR

MSK2(h) = biological target: T2, MSK2(h) (Homo sapiens, UniProt O75676); experiment: Kinase screen; type: biochemical; conditions: 0.1% DMSO control = 100%
T2 construct: purchased Millipore (KinaseProfiler service)
T2 sequence (O75676 whole entry): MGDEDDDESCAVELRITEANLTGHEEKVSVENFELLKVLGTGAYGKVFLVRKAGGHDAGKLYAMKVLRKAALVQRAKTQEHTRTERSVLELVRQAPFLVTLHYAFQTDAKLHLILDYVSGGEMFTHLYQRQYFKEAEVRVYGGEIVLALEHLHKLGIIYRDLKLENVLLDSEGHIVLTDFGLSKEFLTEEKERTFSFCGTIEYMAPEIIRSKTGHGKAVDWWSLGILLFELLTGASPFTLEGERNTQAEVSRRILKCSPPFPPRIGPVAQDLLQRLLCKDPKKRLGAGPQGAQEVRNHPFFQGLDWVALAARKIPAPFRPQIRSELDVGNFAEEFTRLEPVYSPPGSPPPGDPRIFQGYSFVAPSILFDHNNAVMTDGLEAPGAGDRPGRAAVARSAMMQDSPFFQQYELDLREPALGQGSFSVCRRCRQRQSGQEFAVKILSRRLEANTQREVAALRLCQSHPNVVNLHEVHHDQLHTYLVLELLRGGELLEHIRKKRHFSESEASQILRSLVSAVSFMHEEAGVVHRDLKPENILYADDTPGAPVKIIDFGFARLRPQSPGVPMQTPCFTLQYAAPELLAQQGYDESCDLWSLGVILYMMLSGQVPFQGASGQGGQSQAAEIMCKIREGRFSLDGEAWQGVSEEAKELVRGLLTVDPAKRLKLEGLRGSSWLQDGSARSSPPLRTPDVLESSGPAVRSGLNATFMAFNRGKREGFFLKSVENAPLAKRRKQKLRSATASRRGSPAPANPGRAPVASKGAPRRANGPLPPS

c-RAF(h) = biological target: T3, c-RAF(h) (Homo sapiens, UniProt P04049); experiment: Kinase screen; type: biochemical; conditions: 0.1% DMSO control = 100%
T3 construct: purchased Millipore (KinaseProfiler service)
T3 sequence (P04049 whole entry): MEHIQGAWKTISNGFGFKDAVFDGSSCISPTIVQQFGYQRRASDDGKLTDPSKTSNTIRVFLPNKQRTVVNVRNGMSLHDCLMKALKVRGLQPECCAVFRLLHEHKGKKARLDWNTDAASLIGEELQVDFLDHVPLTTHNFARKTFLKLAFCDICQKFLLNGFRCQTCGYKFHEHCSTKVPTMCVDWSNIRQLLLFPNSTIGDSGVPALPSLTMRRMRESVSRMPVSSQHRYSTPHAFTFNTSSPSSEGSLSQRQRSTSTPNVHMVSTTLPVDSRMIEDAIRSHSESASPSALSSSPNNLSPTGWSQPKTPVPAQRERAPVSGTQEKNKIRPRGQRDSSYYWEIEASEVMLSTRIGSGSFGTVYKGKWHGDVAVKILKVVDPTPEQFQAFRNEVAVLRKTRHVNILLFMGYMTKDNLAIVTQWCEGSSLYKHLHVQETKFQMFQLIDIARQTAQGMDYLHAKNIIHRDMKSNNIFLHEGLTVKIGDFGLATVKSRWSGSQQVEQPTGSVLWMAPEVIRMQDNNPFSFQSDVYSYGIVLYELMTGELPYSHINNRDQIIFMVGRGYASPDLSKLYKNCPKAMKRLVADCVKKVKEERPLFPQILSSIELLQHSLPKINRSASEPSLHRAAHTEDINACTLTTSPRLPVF

[1] = biological target: T4, PI3 Kinase (p110b/p85a)(h) (Homo sapiens, UniProt P42338); experiment: Kinase screen; type: biochemical; conditions: 0.1% DMSO control = 100%
T4 construct: purchased Millipore (KinaseProfiler service)

CDK6/cyclinD3(h) = biological target: T5, CDK6/cyclinD3(h) (Homo sapiens, UniProt Q00534); experiment: Kinase screen; type: biochemical; conditions: 0.1% DMSO control = 100%
T5 construct: purchased Millipore (KinaseProfiler service)
T5 sequence (Q00534 whole entry): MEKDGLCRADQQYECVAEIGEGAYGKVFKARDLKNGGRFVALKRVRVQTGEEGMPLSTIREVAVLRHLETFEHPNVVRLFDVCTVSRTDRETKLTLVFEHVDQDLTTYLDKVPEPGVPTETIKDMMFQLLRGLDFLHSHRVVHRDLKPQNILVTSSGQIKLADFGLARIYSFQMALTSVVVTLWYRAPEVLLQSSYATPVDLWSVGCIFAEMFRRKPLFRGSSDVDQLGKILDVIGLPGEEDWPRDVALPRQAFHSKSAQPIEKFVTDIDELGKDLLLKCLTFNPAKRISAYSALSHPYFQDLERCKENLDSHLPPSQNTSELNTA
T5 sequence (P30281 whole entry partner): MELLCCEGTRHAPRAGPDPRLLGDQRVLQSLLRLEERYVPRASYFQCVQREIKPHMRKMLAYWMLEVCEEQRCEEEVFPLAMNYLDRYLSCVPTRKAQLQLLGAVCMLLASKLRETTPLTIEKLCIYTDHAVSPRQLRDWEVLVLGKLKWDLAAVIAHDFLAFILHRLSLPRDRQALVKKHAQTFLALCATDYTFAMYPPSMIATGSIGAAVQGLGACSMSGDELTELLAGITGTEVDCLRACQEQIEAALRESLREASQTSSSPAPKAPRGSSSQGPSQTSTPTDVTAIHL

PP2A(h) = experiment: Phosphatase screen; type: biochemical, human; conditions: 10 μM; 0.1% DMSO control = 100%
PKA(h) = biological target: T6, PKA(h) (Homo sapiens, UniProt P17612); experiment: Kinase screen; type: biochemical; conditions: 0.1% DMSO control = 100%
T6 construct: purchased Millipore (KinaseProfiler service)

Xenopus embryos = experiment: Xenopus laevis axis duplication assay (XWnt8 mRNA); type: in vivo; conditions: 0.4 pmol injected, scored after 36 h; compared to DMSO controls
Method: Injection of ectopic XWnt8 mRNA into the prospective ventral side activates canonical Wnt pathway signaling and induces a secondary body axis. This assay provides a reliable method to test biological effects of compounds with potential effects on Wnt signaling. […] The embryos were incubated at 19° C. and axis duplication was scored after 36 hours.

MKP5(h) = biological target: T7, MKP5(h) (Homo sapiens, UniProt Q9Y6W6); experiment: Phosphatase screen; type: biochemical; conditions: 0.1% DMSO control = 100%
T7 construct: purchased Millipore (KinaseProfiler service)
T7 sequence (Q9Y6W6 whole entry): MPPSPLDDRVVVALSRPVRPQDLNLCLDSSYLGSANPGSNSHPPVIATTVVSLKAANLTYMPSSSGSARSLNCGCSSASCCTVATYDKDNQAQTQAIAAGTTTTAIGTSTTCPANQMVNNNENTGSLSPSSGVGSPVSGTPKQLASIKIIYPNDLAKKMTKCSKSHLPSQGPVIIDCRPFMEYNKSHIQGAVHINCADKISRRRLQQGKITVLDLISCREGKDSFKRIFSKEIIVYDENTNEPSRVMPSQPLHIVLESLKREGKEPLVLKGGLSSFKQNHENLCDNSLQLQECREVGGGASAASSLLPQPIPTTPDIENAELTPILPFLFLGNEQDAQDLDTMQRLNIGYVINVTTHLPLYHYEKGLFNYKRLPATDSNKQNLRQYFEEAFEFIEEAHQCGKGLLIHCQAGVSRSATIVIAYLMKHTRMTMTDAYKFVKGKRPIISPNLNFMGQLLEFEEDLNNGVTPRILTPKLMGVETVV

DUSP22(h) = biological target: T8, DUSP22(h) (Homo sapiens, UniProt Q9NRW4); experiment: Phosphatase screen; type: biochemical; conditions: 0.1% DMSO control = 100%
T8 construct: purchased Millipore (KinaseProfiler service)
T8 sequence (Q9NRW4 whole entry): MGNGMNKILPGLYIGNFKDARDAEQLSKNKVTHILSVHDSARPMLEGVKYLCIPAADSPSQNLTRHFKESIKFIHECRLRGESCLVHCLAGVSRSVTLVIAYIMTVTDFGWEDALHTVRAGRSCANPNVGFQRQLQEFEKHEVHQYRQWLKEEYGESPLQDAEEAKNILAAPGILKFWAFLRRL

NEK2(h) = biological target: T9, NEK2(h) (Homo sapiens, UniProt P51955); experiment: Kinase screen; type: biochemical; conditions: 0.1% DMSO control = 100%
T9 construct: purchased Millipore (KinaseProfiler service)
T9 sequence (P51955 whole entry): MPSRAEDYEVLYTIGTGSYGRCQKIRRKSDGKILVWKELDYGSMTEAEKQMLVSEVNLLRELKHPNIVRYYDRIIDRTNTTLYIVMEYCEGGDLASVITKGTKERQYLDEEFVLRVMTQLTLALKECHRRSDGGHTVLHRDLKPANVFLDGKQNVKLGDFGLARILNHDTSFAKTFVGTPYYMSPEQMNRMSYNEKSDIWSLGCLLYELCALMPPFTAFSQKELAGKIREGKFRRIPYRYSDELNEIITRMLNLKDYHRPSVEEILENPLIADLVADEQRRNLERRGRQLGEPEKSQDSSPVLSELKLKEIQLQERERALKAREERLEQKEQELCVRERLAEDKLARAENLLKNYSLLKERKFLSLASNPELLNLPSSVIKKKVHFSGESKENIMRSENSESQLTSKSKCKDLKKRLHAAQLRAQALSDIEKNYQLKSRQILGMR

PTPN22(h) = biological target: T10, PTPN22(h) (Homo sapiens, UniProt Q9Y2R2); experiment: Phosphatase screen; type: biochemical; conditions: 0.1% DMSO control = 100%
T10 construct: purchased Millipore (KinaseProfiler service)

IGF-1R(h) = biological target: T11, IGF-1R(h) (Homo sapiens, UniProt P08069); experiment: Kinase screen; type: biochemical; conditions: 0.1% DMSO control = 100%
T11 construct: purchased Millipore (KinaseProfiler service)

[2] = tested on: SW480 colon carcinoma cells; experiment: MTS cell proliferation assay, Table 5; type: cell-based; conditions: Homo sapiens; SW480, 10 μM, 72 h; relative to DMSO control; read-out: Cell proliferation (%) for test compounds
Procedure, shortened: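 SW480 cells treated with 10 μM compound (0.1% DMSO vehicle) in 10% FBS medium, refreshed daily, for 72 h. MTS reduction read at A490 after 2 h substrate incubation; values are t0-corrected growth as percent of DMSO control.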

[3] = tested on: Wnt signaling pathway in SW480 cells; experiment: ST-d1EGFP reporter in SW480 cells (flow cytometry); type: cell-based; conditions: 25 µM compound, 72 h
Method: 3) the SW480 colorectal cell line, which has an aberrant Wnt activity caused by spontaneous mutations in the APC locus, transfected with the construct ST-d1EGFP. In this cell line, d1EGFP reporter is activated without using Wnt-3a CM, i.e. the cell line has permanently “switched on” Wnt signaling pathway.
100000 ST-d1EGFP SW480 and SW480 CMV-d1EGFP (Clontech) SW480 cells were plated on 12-well plates and 1, 10 or 25 μM of compound No. 1 (or 0.01%, 0.1% or 0.25% DMSO—controls) was added to the cells the following day. After a 72 hour incubation, samples were trypsinized and analysed for d1EGFP expression on a PAS-PPCS flowcytometer and cell sorter (Partec).

GRK5(h) = biological target: T12, GRK5(h) (Homo sapiens, UniProt P34947); experiment: Kinase screen; type: biochemical; conditions: 0.1% DMSO control = 100%
T12 construct: purchased Millipore (KinaseProfiler service)
T12 sequence (P34947 whole entry): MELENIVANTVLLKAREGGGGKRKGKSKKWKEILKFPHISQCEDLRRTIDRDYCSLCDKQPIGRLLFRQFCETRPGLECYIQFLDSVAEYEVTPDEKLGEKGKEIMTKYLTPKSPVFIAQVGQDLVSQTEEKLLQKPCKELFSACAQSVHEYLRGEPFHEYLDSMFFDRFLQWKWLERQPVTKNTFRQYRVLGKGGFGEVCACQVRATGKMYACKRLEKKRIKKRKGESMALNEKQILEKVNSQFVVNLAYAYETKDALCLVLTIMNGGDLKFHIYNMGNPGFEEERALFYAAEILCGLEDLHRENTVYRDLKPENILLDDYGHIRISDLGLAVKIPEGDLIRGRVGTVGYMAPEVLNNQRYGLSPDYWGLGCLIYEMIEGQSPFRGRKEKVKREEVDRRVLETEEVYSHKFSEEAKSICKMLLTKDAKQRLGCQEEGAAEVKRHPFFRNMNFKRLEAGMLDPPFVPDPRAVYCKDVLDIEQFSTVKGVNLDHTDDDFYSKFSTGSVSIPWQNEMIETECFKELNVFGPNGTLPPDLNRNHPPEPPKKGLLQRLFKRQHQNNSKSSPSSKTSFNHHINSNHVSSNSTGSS

COc1ccc(-n2c(SCc3nc(-c4ccc(C)cc4)no3)nnc2-c2ccncc2)cc1 [Compound 1]
activity at 10 µM (canonical Wnt signaling; HEK293, 10 μM compound, 30% Wnt3a-CM, relative to DMSO control): 15.4% | pIC50 (canonical Wnt signaling; HEK293, 30% Wnt3a-CM, 0.1-10 μM, read-out: IC50, reduction of canonical Wnt signaling by the ST-Luc assay): 6.00 | activity at 10 µM (CK2(h)): 105% | activity at 10 µM (MSK2(h)): 108% | activity at 10 µM (c-RAF(h)): 98% | activity at 10 µM [1]: 94% | activity at 10 µM (CDK6/cyclinD3(h)): 94% | Activity (%) (PP2A(h)): 87% | activity at 10 µM (PKA(h)): 86% | reduction in double axis formation (Xenopus embryos): 87% | activity at 10 µM (MKP5(h)): 99% | activity at 10 µM (DUSP22(h)): 101% | activity at 10 µM (NEK2(h)): 94% | activity at 10 µM (PTPN22(h)): 99% | activity at 10 µM (IGF-1R(h)): 149% | activity at 10 µM [2]: 52% | reduction of ratio of activity of ST-d1EGFP to CMV-d1EGFP [3]: 63.5% | activity at 10 µM (GRK5(h)): 104%
